Test results taken from the supplement of paper PMC10307832.

Legend:
Experiment in all cases: relative viability (nuclei count vs DMSO), 5 days (fraction); higher = more cells survive
YM155 + Decitabine = compound: COCC[n+]1c2c(n(Cc3cnccn3)c1C)C(=O)c1ccccc1C2=O [YM155] + Nc1ncn([C@H]2C[C@H](O)[C@@H](CO)O2)c(=O)n1 [Decitabine] (partner 2 µM)
Summary of the method: (§1)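 Values are medians from duplicate plates. Each reflects relative viability, defined as the nuclei count of treated wells over that of vehicle wells. Lung cancer cell lines in 1536-well plates were pin-tool dosed one day after seeding with one drug alone or with a fixed anchor-drug dose plus five library-drug doses (not always all listed) in √10 steps, then fixed, stained and imaged at 4× after 5 days.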

Quizartinib + Luminespib = compound: CC(C)(C)c1cc(NC(=O)Nc2ccc(-c3cn4c(n3)sc3cc(OCCN5CCOCC5)ccc34)cc2)no1 [Quizartinib] + CCNC(=O)c1noc(-c2cc(C(C)C)c(O)cc2O)c1-c1ccc(CN2CCOCC2)cc1 [Luminespib] (partner 0.01 µM)
Summary of the method: as §1

YM155 + Trametinib = compound: COCC[n+]1c2c(n(Cc3cnccn3)c1C)C(=O)c1ccccc1C2=O [YM155] + CC(=O)Nc1cccc(-n2c(=O)n(C3CC3)c(=O)c3c(Nc4ccc(I)cc4F)n(C)c(=O)c(C)c32)c1 [Trametinib] (partner 0.02 µM)
Summary of the method: as §1

YM155 + Linsitinib = compound: COCC[n+]1c2c(n(Cc3cnccn3)c1C)C(=O)c1ccccc1C2=O [YM155] + C[C@]1(O)C[C@@H](c2nc(-c3ccc4ccc(-c5ccccc5)nc4c3)c3c(N)nccn32)C1 [Linsitinib] (partner 1 µM)
Summary of the method: as §1

Cell Line	relative viability (YM155 + Decitabine; first compound 0.002 µM)	relative viability (YM155 + Decitabine; first compound 0.006325 µM)	relative viability (YM155 + Decitabine; first compound 0.02 µM)	relative viability (YM155 + Decitabine; first compound 0.06325 µM)	relative viability (Quizartinib + Luminespib; first compound 0.003162 µM)	relative viability (Quizartinib + Luminespib; first compound 0.01 µM)	relative viability (Quizartinib + Luminespib; first compound 0.03162 µM)	relative viability (Quizartinib + Luminespib; first compound 0.1 µM)	relative viability (YM155 + Trametinib; first compound 0.002 µM)	relative viability (YM155 + Trametinib; first compound 0.006325 µM)	relative viability (YM155 + Trametinib; first compound 0.02 µM)	relative viability (YM155 + Trametinib; first compound 0.06325 µM)	relative viability (YM155 + Linsitinib; first compound 0.002 µM)	relative viability (YM155 + Linsitinib; first compound 0.006325 µM)	relative viability (YM155 + Linsitinib; first compound 0.02 µM)	relative viability (YM155 + Linsitinib; first compound 0.06325 µM)	relative viability (Quizartinib + Luminespib; first compound 0.001 µM)
NCI-H1792	0.453	0.514	0.6	0.566	0.484	0.452	0.321	0.444	0.498	0.366	0.468	0.599	0.507	0.548	0.552	0.626	–
NCI-H1793	0.988	0.485	0.61	0.497	0.171	0.467	0.174	0.159	0.4	0.452	0.432	0.407	–	0.639	0.886	0.483	0.161
NCI-H1915	0.277	0.256	0.264	0.267	0.714	0.828	0.829	0.815	0.303	0.295	0.3	0.349	1.12	1.05	1.1	1.01	0.786
NCI-H1944	0.416	0.395	0.415	0.453	0.804	0.774	0.727	0.722	0.388	0.332	0.429	0.381	1.14	1.15	1.19	1.32	0.757
NCI-H1975	0.344	0.338	0.423	0.353	0.273	0.164	0.212	0.202	0.291	0.299	0.406	0.236	1.03	1.06	0.861	0.842	0.166
NCI-H1993	0.607	0.644	0.597	0.439	1.03	0.965	0.844	0.692	0.466	0.536	0.427	0.453	0.678	0.701	0.777	0.697	0.862
NCI-H2009	0.342	0.383	0.362	0.36	1.01	1.07	0.967	1.03	0.273	0.295	0.354	0.358	1.2	1.25	1.13	0.217	0.915
NCI-H2023	0.224	0.201	0.193	0.184	0.664	0.759	–	0.624	0.538	0.617	0.451	0.241	0.744	0.699	0.659	0.305	0.73
NCI-H2085	0.594	0.557	0.54	0.471	0.391	0.454	0.419	0.393	0.573	0.659	0.679	0.348	0.822	0.743	0.852	0.517	0.403
NCI-H2087	0.37	0.282	0.245	0.293	0.206	0.174	0.177	0.156	0.143	0.179	0.271	0.225	0.979	0.741	0.861	0.868	–
NCI-H2126	0.53	0.624	0.59	0.6	0.828	0.798	–	1.11	0.558	0.582	0.541	0.556	0.704	0.722	0.704	0.771	0.844
NCI-H2347	0.64	0.612	0.648	0.539	0.51	0.41	0.495	0.624	0.279	0.258	0.306	0.283	0.965	0.93	1.1	0.618	0.335
NCI-H2405	0.711	0.7	0.644	0.397	0.747	0.562	0.75	0.724	0.661	0.595	0.596	0.384	0.952	0.755	0.83	0.469	0.641
NCI-H3122	0.428	0.432	0.482	0.486	0.0886	0.079	0.106	0.112	0.191	0.202	0.242	0.203	0.97	1	0.993	1.09	0.0909
PC-3 [JPC-3]	0.778	0.796	0.89	0.701	0.676	0.808	0.733	0.724	0.774	0.666	0.685	0.598	0.995	0.927	0.995	0.995	0.556
PC-14	0.19	0.223	0.2	0.161	0.168	0.164	–	0.127	0.617	0.672	0.36	0.119	0.967	0.984	0.981	0.993	0.181
RERF-LC-KJ	0.649	0.644	0.787	0.737	1.19	1.38	0.96	1.12	0.896	0.952	0.942	0.707	0.859	0.878	0.923	0.864	1.12
SK-LU-1	0.57	0.695	0.63	0.506	0.191	0.212	0.201	0.232	0.455	0.456	0.564	0.438	1.08	1.04	1.21	0.708	0.205
SK-MES-1	0.423	0.289	0.285	0.21	0.789	0.541	–	0.646	0.588	0.701	0.459	0.218	1.12	1.07	1.12	0.964	0.736
